Test results from ChEMBL document CHEMBL4177594, “Design, synthesis, and evaluation of salicyladimine derivatives as multitarget-directed ligands against Alzheimer's disease” (Bioorg Med Chem, 2017).
Active and inactive are the calls of the source. No cut-off for these calls is given here.

What was measured:
[1] = target: Amyloid-beta precursor protein (Homo sapiens) (UniProt P05067); test: Inhibition of self-induced aggregation of amyloid beta (1 to 42 residues) (unknown origin) at 25 uM incubated for 48 hrs by Thioflavin T fluorescence assay relative to control
Chain of Amyloid-beta precursor protein (Homo sapiens) (P05067 whole entry, the tested form may be a part): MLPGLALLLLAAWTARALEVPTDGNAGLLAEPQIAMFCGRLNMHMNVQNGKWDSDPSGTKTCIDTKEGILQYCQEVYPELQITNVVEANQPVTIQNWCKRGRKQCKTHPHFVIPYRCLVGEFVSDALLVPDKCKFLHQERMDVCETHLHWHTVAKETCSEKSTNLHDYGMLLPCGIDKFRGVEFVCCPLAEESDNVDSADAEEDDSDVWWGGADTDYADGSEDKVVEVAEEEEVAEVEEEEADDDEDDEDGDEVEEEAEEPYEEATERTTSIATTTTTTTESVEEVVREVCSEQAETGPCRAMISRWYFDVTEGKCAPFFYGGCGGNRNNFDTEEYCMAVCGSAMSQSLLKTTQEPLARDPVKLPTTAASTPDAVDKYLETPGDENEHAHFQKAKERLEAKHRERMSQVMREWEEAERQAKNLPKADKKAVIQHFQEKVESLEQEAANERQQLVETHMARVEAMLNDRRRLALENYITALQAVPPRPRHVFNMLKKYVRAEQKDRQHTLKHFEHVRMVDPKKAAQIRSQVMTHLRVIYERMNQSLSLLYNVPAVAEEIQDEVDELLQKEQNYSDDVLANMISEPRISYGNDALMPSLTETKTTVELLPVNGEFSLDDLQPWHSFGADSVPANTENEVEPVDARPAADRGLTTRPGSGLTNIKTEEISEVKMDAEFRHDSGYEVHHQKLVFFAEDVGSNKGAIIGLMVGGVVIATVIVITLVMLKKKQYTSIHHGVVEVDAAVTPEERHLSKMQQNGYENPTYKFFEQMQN

[2] = target: T1, Amine oxidase [flavin-containing] B (Homo sapiens, UniProt P27338); test: Inhibition of human MAO-B using p-tyramine as substrate preincubated for 15 mins followed by substrate addition measured after 20 mins by fluorescence-based Amplex Red MAO assay
T1 sequence (P27338 whole entry): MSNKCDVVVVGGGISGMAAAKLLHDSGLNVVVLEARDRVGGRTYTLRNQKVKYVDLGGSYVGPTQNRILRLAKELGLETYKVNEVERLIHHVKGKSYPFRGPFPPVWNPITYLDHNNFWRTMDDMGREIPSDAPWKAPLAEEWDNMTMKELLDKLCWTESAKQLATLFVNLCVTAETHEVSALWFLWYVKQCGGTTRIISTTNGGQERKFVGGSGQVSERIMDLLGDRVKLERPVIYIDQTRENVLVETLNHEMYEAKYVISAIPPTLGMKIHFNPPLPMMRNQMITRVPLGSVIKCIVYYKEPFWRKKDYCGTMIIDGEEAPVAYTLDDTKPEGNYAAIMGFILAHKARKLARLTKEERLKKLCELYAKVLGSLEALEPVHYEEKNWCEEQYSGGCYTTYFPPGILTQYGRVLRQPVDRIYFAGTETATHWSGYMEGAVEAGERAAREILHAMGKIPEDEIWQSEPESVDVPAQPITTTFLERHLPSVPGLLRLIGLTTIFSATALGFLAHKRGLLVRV

Homo sapiens = species on record: Homo sapiens; test: Selectivity index, ratio of IC50 for human MAO-A to IC50 for human MAO-B
[3] = Antioxidant activity assessed as DPPH radical scavenging activity after 30 mins; format: functional
[4] = Antioxidant activity assessed as ABTS radical scavenging activity at 25 uM after 6 mins; format: functional
[5] = target: T2, Amine oxidase [flavin-containing] A (Homo sapiens, UniProt P21397); test: Inhibition of human MAO-A at 200 uM using p-tyramine as substrate preincubated for 15 mins followed by substrate addition measured after 20 mins by fluorescence-based Amplex Red MAO assay
T2 sequence (P21397 whole entry): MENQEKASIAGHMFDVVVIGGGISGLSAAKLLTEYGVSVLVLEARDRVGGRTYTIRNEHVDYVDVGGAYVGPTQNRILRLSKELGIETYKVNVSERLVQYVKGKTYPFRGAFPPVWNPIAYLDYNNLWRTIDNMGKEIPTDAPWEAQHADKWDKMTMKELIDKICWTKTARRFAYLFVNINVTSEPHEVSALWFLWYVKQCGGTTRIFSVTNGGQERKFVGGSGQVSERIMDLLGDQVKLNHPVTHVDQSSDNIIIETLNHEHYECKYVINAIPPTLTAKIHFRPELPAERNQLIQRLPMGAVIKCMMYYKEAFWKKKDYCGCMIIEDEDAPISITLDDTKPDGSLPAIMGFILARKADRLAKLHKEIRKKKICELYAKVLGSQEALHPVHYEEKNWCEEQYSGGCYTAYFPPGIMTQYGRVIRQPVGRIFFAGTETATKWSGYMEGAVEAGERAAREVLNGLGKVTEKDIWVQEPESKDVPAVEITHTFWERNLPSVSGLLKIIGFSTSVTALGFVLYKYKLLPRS

PC-12 [6] = test: Cytotoxicity against rat PC12 cells at 25 uM after 24 hrs by MTT assay; format: cell-based; conditions: pc-12, 24 h
PC-12 [7] = test: Neuroprotective activity against H2O2-induced cytotoxicity in rat PC12 cells assessed as increase in cell viability at 25 uM preincubated for 24 hrs followed by H2O2 addition and measured after 24 hrs by MTT assay; format: functional, cell-based
[8] = target: T2, Amine oxidase [flavin-containing] A; test: Inhibition of human MAO-A using p-tyramine as substrate preincubated for 15 mins followed by substrate addition measured after 20 mins by fluorescence-based Amplex Red MAO assay
in vitro = test: in vitro; design: dose or concentration left out as unconfirmed; conditions: PAMPA
Description: Permeability of the compound at 100 mg/ml after 16 hrs by BBB-PAMPA method

| Compound | inhibition [1] | IC50 [2] | Ratio IC50 (Homo sapiens) | IC50 [3] | Activity (umolequiv/umol) [4] | inhibition (INH) [5] | Activity (PC-12 [6]) | Activity (PC-12 [7]) | IC50 [8] | Papp at 16 h (in vitro) |
| --- | --- | --- | --- | --- | --- | --- | --- | --- | --- | --- |
| Oc1cc(O)c(/C=N/c2ccc(OCc3ccccc3)cc2)c(O)c1 | 88.5% | 10.1 µM | > 9.86 | 23.9 µM | 0.69 | Not Active | Non-Toxic | inactive |  |  |
| Cc1ccc(/C=N/c2ccc(OCc3ccccc3)cc2)c(O)c1 | 60.1% | 24.4 µM | > 4.09 | > 200 µM |  | Not Active | Non-Toxic |  |  |  |
| Cc1ccc(O)c(/C=N/c2ccc(OCc3ccccc3)cc2)c1 | 61.9% | 24.6 µM | > 4.06 | > 200 µM |  | Not Active | Non-Toxic |  |  |  |
| Oc1ccc(Cl)cc1/C=N/c1ccc(OCc2ccccc2)cc1 | 59.6% | 24.8 µM | > 4.03 | > 200 µM |  | Not Active | Non-Toxic |  |  |  |
| Oc1ccc(Br)cc1/C=N/c1ccc(OCc2ccccc2)cc1 | 54.3% | 31.7 µM | > 3.15 | > 200 µM |  | Not Active | Non-Toxic |  |  |  |
| Cc1cccc(/C=N/c2ccc(OCc3ccccc3)cc2)c1O | 53.7% | 15.5 µM | > 6.47 | > 200 µM |  | Not Active | Non-Toxic |  |  |  |
| Oc1cccc(/C=N/c2ccc(OCc3ccccc3)cc2)c1O | 72.5% | 6.87 µM | 1.66 | 13.3 µM | 0.6 |  | Non-Toxic | Active | 11.4 µM |  |
| COc1ccc(/C=N/c2ccc(OCc3ccccc3)cc2)c(O)c1 | 69.5% | 23.6 µM | > 4.24 | > 200 µM |  | Not Active | Non-Toxic |  |  |  |
| CCn1cc(C(=O)O)c(=O)c2cc(F)c(N3CCNC(C)C3)c(F)c21 (configuration not stated) [LOMEFLOXACIN] |  |  |  |  |  |  |  |  |  | 1.59 ×10⁻⁶ cm/s |
| C[C@]12CC[C@@H]3c4ccc(O)cc4CC[C@H]3[C@@H]1CC[C@@H]2O [ESTRADIOL] |  |  |  |  |  |  |  |  |  | 9.17 ×10⁻⁶ cm/s |
| Oc1ccc2ccccc2c1/C=N/c1ccc(OCc2ccccc2)cc1 | 73.1% | 19.2 µM | > 5.22 | > 200 µM |  | Not Active | Non-Toxic |  |  |  |
| COc1cccc(/C=N/c2ccc(OCc3ccccc3)cc2)c1O | 53.4% | 6.5 µM | > 15.4 | > 200 µM |  | Not Active | Non-Toxic |  |  |  |
| Oc1ccc(F)cc1/C=N/c1ccc(OCc2ccccc2)cc1 | 84.4% | 15.3 µM | > 6.54 | > 200 µM |  | Not Active | Non-Toxic |  |  |  |
| COc1ccc(O)c(/C=N/c2ccc(OCc3ccccc3)cc2)c1 | 56.6% | 10.7 µM | > 9.34 | > 200 µM |  | Not Active | Non-Toxic |  |  |  |
| Oc1ccc(/C=C/c2cc(O)cc(O)c2)cc1 [RESVERATROL] |  |  |  | 82.7 µM | 1.57 |  |  |  |  |  |
| Oc1ccccc1/C=N/c1ccc(OCc2ccccc2)cc1 | 63.3% | 25.1 µM | > 3.98 | > 200 µM |  | Not Active | Non-Toxic |  |  |  |
| Oc1ccc(O)c(/C=N/c2ccc(OCc3ccccc3)cc2)c1 | 49.2% | 1.23 µM | 15.3 | 21.3 µM | 0.97 |  | Non-Toxic | Active | 18.8 µM |  |
| Oc1c(Br)cc(Br)cc1/C=N/c1ccc(OCc2ccccc2)cc1 | 66.7% | 10.8 µM | > 9.23 | > 200 µM |  | Not Active | Non-Toxic |  |  |  |
| O=[N+]([O-])c1ccc(O)c(/C=N/c2ccc(OCc3ccccc3)cc2)c1 | 70.2% | 60.9 µM | > 1.64 | > 200 µM |  | Not Active | Non-Toxic |  |  |  |
| Oc1ccc(/C=N/c2ccc(OCc3ccccc3)cc2)c(O)c1 | 59.8% | 6.78 µM | > 14.8 | > 200 µM |  | Not Active | Non-Toxic |  |  |  |
